From patent US10479780B2, “Aminopyrazole derivatives” (Chugai Seiyaku Kabushiki Kaisha, priority 2015, dated 2019)

What was measured:
Assay type in all cases: biochemical
[1] = target: T1, human Lck enzyme (Homo sapiens, UniProt P06239); assay: Lck enzyme inhibitory activity (time-resolved fluorometry, biotinylated peptide phosphorylation); settings: read-out: LCK_IC50
T1 construct: purchased Carna Biosciences, Inc. 08-170
In short: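 Readout pairs a europium cryptate-labelled anti-phosphotyrosine antibody with XL665-streptavidin, measured by time-resolved fluorescence. IC50 derived from percent inhibition against untreated controls.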

[2] = target: T2, human Src enzyme (Homo sapiens, UniProt P12931); assay: Src enzyme inhibitory activity (time-resolved fluorometry, biotinylated peptide phosphorylation); settings: read-out: SRC_IC50
T2 construct: purchased Carna Biosciences, Inc. 08-173
In short: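 Compounds were tested for blocking tyrosine phosphorylation of a biotinylated peptide substrate by recombinant human Src. Phosphorylated product was quantified by time-resolved fluorometry using europium cryptate and XL665 conjugates, and IC50 was calculated against the compound-free control.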

[3] = target: T3, human Yes1 enzyme (Homo sapiens, UniProt P07947); assay: Yes1 enzyme inhibitory activity (time-resolved fluorometry, biotinylated peptide phosphorylation); settings: read-out: YES_IC50
T3 construct: made in house
In short: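 Inhibition was expressed against a compound-free control to give IC50, using TR-FRET read-out (Eu-cryptate anti-pTyr antibody, streptavidin-XL665).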

T3 sequence (P07947 whole entry): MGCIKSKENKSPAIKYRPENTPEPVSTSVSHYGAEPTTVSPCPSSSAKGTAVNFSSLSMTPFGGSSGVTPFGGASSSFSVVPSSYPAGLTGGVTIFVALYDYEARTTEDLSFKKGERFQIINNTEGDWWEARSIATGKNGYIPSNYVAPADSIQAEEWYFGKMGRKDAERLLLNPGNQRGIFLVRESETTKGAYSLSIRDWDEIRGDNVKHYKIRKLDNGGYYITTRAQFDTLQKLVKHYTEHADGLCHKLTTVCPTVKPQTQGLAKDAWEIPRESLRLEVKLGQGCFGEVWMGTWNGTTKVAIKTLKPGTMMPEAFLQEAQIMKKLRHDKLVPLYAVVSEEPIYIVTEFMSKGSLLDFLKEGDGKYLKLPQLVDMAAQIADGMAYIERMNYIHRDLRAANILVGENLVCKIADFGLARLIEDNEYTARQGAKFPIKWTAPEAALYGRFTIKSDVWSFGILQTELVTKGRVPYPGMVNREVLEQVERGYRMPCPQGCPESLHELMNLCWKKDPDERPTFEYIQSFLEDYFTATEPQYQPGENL
T2 sequence (P12931 whole entry): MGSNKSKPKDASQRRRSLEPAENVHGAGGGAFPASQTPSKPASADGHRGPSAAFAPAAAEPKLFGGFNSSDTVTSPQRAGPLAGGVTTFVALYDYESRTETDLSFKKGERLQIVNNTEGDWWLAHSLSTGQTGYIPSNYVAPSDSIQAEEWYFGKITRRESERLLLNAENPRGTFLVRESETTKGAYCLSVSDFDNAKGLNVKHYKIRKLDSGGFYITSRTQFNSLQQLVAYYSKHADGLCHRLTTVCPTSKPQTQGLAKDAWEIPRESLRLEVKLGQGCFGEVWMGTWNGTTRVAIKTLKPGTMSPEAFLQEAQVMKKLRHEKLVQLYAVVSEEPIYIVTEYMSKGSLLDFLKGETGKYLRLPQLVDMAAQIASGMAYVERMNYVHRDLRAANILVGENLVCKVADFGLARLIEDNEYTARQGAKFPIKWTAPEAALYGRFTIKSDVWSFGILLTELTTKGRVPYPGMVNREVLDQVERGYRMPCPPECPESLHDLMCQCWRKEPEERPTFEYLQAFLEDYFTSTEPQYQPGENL
T1 sequence (P06239 whole entry): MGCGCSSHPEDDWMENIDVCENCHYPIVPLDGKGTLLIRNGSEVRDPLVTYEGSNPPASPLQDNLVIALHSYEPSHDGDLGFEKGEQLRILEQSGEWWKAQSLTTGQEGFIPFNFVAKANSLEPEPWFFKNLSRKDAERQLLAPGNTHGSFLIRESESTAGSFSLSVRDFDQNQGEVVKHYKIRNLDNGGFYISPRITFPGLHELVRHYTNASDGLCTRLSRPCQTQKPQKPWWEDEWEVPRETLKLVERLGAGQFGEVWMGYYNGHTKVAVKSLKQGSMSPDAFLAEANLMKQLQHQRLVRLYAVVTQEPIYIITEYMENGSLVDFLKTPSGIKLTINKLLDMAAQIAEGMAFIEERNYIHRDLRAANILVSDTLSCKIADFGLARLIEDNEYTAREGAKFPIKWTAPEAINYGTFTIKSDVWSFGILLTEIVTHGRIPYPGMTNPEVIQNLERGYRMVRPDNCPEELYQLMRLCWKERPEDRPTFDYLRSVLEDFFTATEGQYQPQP

Row | SMILES | IC50 [1] | IC50 [2] | IC50 [3]
1 | Cc1cc2cc(C(=O)c3cnn(-c4ccc(Oc5ccccc5F)cc4C)c3N)[nH]c2cc1NS(=O)(=O)C1CCOCC1 [Example 5-1-347, N-[2-[5-amino-1-[4-(2-fluorophenoxy)-2-methylphenyl]pyrazole-4-carbonyl]-5-methyl-1H-indol-6-yl]oxane-4-sulfonamide] | 11 nM | 46 nM | 0.87 nM
2 | Cc1cc(Oc2c(F)cccc2F)ncc1-n1ncc(C(=O)c2cc3cc(OCC(F)F)c(N4C(=O)N[C@]5(CCNC5)C4=O)cc3[nH]2)c1N [Example 5-1-348, (5S)-3-[2-[5-amino-1-[6-(2,6-difluorophenoxy)-4-methylpyridin-3-yl]pyrazole-4-carbonyl]-5-(2,2-difluoroethoxy)-1H-indol-6-yl]-1,3,7-triazaspiro[4.4]nonane-2,4-dione] | 2 nM | 13 nM | 0.8 nM
3 | Cc1cc(Oc2ccccc2F)ccc1-n1ncc(C(=O)c2cc3cc(OCC(F)F)c(N4C(=O)NC5(CCNC5)C4=O)cc3[nH]2)c1N (stereo not drawn) [Example 5-1-349, 3-[2-[5-amino-1-[4-(2-fluorophenoxy)-2-methylphenyl]pyrazole-4-carbonyl]-5-(2,2-difluoroethoxy)-1H-indol-6-yl]-1,3,7-triazaspiro [4.4]nonane-2,4-dione] | 2.5 nM | 6.9 nM | 0.51 nM
4 | Cc1cc(Oc2c(F)cccc2F)ncc1-n1ncc(C(=O)c2cc3cc(OCC(F)F)c(N4C(=O)NC5(CCN(C6COC6)CC5)C4=O)cc3[nH]2)c1N [Example 5-1-350, 3-[2-[5-amino-1-[6-(2,6-difluorophenoxy)-4-methylpyridin-3-yl]pyrazole-4-carbonyl]-5-(2,2-difluoroethoxy)-1H-indol-6-yl]-8-(oxetan-3-yl)-1,3,8-triazaspiro[4.5]decane-2,4-dione] | 3.3 nM | 13 nM | 0.88 nM
5 | Cc1cc(Oc2c(F)cccc2F)ncc1-n1ncc(C(=O)c2cc3cc(OCC(F)F)c(N4C(=O)NC5(CCN(Cc6ccccc6)CC5)C4=O)cc3[nH]2)c1N [Example 5-1-351, 3-[2-[5-amino-1-[6-(2,6-difluorophenoxy)-4-methylpyridin-3-yl]pyrazole-4-carbonyl]-5-(2,2-difluoroethoxy)-1H-indol-6-yl]-8-benzyl-1,3,8-triazaspiro[4.5]decane-2,4-dione] | 2.4 nM | 6 nM | 0.65 nM
6 | Cc1cc(Oc2c(F)cccc2F)ncc1-n1ncc(C(=O)c2cc3cc(OCC(F)F)c(N4C(=O)NC5(CCN(C6COC6)C5)C4=O)cc3[nH]2)c1N (stereo not drawn) [Example 5-1-352, 3-[2-[5-amino-1-[6-(2,6-difluorophenoxy)-4-methylpyridin-3-yl]pyrazole-4-carbonyl]-5-(2,2-difluoroethoxy)-1H-indol-6-yl]-7-(oxetan-3-yl)-1,3,7-triazaspiro[4.4]nonane-2,4-dione] | 17 nM | 160 nM | 11 nM
7 | Cc1cc(Oc2ccccc2F)ccc1-n1ncc(C(=O)c2cc3cc(OCC(F)F)c(N4C(=O)NC5(CCN(C6COC6)C5)C4=O)cc3[nH]2)c1N (stereo not drawn) [Example 5-1-353, 3-(2-(5-amino-1-(4-(2-fluorophenoxy)-2-methylphenyl)-1H-pyrazole-4-carbonyl)-5-(2,2-difluoroethoxy)-1H-indol-6-yl)-7-(oxetan-3-yl)-1,3,7-triazaspiro[4.4]nonane-2,4-dione] | 14 nM | 73 nM | 5.5 nM
8 | Cc1cc(Oc2c(F)cccc2F)ncc1-n1ncc(C(=O)c2cc3cc(OCC(F)F)c(N4C(=O)NC5(CCN(Cc6ccccc6)C5)C4=O)cc3[nH]2)c1N (stereo not drawn) [Example 5-1-354, 3-[2-[5-amino-1-[6-(2,6-difluorophenoxy)-4-methylpyridin-3-yl]pyrazole-4-carbonyl]-5-(2,2-difluoroethoxy)-1H-indol-6-yl]-7-benzyl-1,3,7-triazaspiro[4.4]nonane-2,4-dione] | 2.9 nM | 13 nM | 1.4 nM
9 | Cc1cc(Oc2ccccc2F)ccc1-n1ncc(C(=O)c2cc3cc(OCC(F)F)c(N4C(=O)NC5(CCN(Cc6ccccc6)C5)C4=O)cc3[nH]2)c1N (stereo not drawn) [Example 5-1-355, 3-[2-[5-amino-1-[4-(2-fluorophenoxy)-2-methylphenyl]pyrazole-4-carbonyl]-5-(2,2-difluoroethoxy)-1H-indol-6-yl]-7-benzyl-1,3,7-triazaspiro[4.4]nonane-2,4-dione] | 13 nM | 97 nM | 8 nM
10 | Cc1cc2cc(C(=O)c3cnn(-c4ccc(Oc5ccccc5F)cc4C)c3N)[nH]c2cc1N1C(=O)NC(C)(C)C1=O [Example 5-1-356, 3-[2-[5-amino-1-[4-(2-fluorophenoxy)-2-methylphenyl]pyrazole-4-carbonyl]-5-methyl-1H-indol-6-yl]-5,5-dimethylimidazolidine-2,4-dione] | 4.4 nM | 17 nM | 0.87 nM

Other lines, results leading:

Row | IC50 [1] | IC50 [2] | IC50 [3] | SMILES
11 | 4.4 nM | 39 nM | 2.3 nM | Cc1cc2cc(C(=O)c3cnn(-c4cnc(Oc5c(F)cccc5F)cc4C)c3N)[nH]c2cc1N1C(=O)NC2(CCNCC2)C1=O [Example 5-1-357, 3-[2-[5-amino-1-[6-(2,6-difluorophenoxy)-4-methylpyridin-3-yl]pyrazole-4-carbonyl]-5-methyl-1H-indol-6-yl]-1,3,8-triazaspiro[4.5] decane-2,4-dione]
12 | 4.2 nM | 21 nM | 1.8 nM | Cc1cc2cc(C(=O)c3cnn(-c4cnc(Oc5c(F)cccc5F)cc4C)c3N)[nH]c2cc1N1C(=O)NC2(CCNC2)C1=O (stereo not drawn) [Example 5-1-358, 3-[2-[5-amino-1-[6-(2,6-difluorophenoxy)-4-methylpyridin-3-yl]pyrazole-4-carbonyl]-5-methyl-1H-indol-6-yl]-1,3,7-triazaspiro[4.4] nonane-2,4-dione]
13 | 25 nM | 130 nM | 6 nM | Cc1cc(Oc2ccccc2F)ncc1-n1ncc(C(=O)c2cc3cc(SC(F)F)c(N4C(=O)NC(C)(C)C4=O)cc3[nH]2)c1N [Example 5-1-359, 3-[2-[5-amino-1-[6-(2-fluorophenoxy)-4-methylpyridin-3-yl]pyrazole-4-carbonyl]-5-(difluoromethylsulfanyl)-1H-indol-6-yl]-5,5-dimethylimidazolidine-2,4-dione]
14 | 6.3 nM | 19 nM | 2.2 nM | Cc1cc2cc(C(=O)c3cnn(-c4cnc(Oc5c(F)cccc5F)cc4C)c3N)[nH]c2cc1N1C(=O)NC2(CCN(C3COC3)CC2)C1=O [Example 5-1-360, 3-[2-[5-amino-1-[6-(2,6-difluorophenoxy)-4-methylpyridin-3-yl]pyrazole-4-carbonyl]-5-methyl-1H-indol-6-yl]-8-(oxetan-3-yl)-1,3,8-triazaspiro[4.5]decane-2,4-dione]
15 | 26 nM | 170 nM | 9.2 nM | Cc1cc2cc(C(=O)c3cnn(-c4cnc(Oc5c(F)cccc5F)cc4C)c3N)[nH]c2cc1N1C(=O)NC2(CCN(Cc3ccccc3)CC2)C1=O [Example 5-1-361, 3-[2-[5-amino-1-[6-(2,6-difluorophenoxy)-4-methylpyridin-3-yl]pyrazole-4-carbonyl]-5-methyl-1H-indol-6-yl]-8-benzyl-1,3,8-triazaspiro[4.5]decane-2,4-dione]
16 | 6.5 nM | 29 nM | 2 nM | Cc1cc2cc(C(=O)c3cnn(-c4cnc(Oc5c(F)cccc5F)cc4C)c3N)[nH]c2cc1N1C(=O)NC2(CCN(C3COC3)C2)C1=O (stereo not drawn) [Example 5-1-362, 3-[2-[5-amino-1-[6-(2,6-difluorophenoxy)-4-methylpyridin-3-yl]pyrazole-4-carbonyl]-5-methyl-1H-indol-6-yl]-7-(oxetan-3-yl)-1,3,7-triazaspiro[4.4]nonane-2,4-dione]
17 | 31 nM | 260 nM | 11 nM | Cc1cc2cc(C(=O)c3cnn(-c4cnc(Oc5c(F)cccc5F)cc4C)c3N)[nH]c2cc1N1C(=O)NC2(CCN(Cc3ccccc3)C2)C1=O (stereo not drawn) [Example 5-1-363, 3-[2-[5-amino-1-[6-(2,6-difluorophenoxy)-4-methylpyridin-3-yl]pyrazole-4-carbonyl]-5-methyl-1H-indol-6-yl]-7-benzyl-1,3,7-triazaspiro[4.4]nonane-2,4-dione]
18 | 5.4 nM | 18 nM | 1.3 nM | Cc1cc2cc(C(=O)c3cnn(-c4ccc(Oc5ccccc5F)cc4C)c3N)[nH]c2cc1N1C(=O)NC2(CCNCC2)C1=O [Example 5-1-364, 3-(2-(5-amino-1-(4-(2-fluorophenoxy)-2-methylphenyl)-1H-pyrazole-4-carbonyl)-5-methyl-1H-indol-6-yl)-1,3,8-triazaspiro[4.5]decane-2,4-dione]
19 | 5.7 nM | 18 nM | 1.5 nM | Cc1cc2cc(C(=O)c3cnn(-c4ccc(Oc5ccccc5F)cc4C)c3N)[nH]c2cc1N1C(=O)NC2(CCNC2)C1=O (stereo not drawn) [Example 5-1-365, 3-[2-[5-amino-1-[4-(2-fluorophenoxy)-2-methylphenyl]pyrazole-4-carbonyl]-5-methyl-1H-indol-6-yl]-1,3,7-triazaspiro[4.4]nonane-2,4-dione]
20 | 9.9 nM | 39 nM | 3.7 nM | Cc1cc2cc(C(=O)c3cnn(-c4cnc(Oc5c(F)cccc5F)cc4C)c3N)[nH]c2cc1N1C(=O)NC2(CC2)C1=O [Example 5-1-366, 6-[2-[5-amino-1-[6-(2,6-difluorophenoxy)-4-methylpyridin-3-yl]pyrazole-4-carbonyl]-5-methyl-1H-indol-6-yl]-4,6-diazaspiro[2.4] heptane-5,7-dione]
